Laboratory results published in ChEMBL document CHEMBL5335794, “Discovery of novel multifunctional ligands targeting GABA transporters, butyrylcholinesterase, β-secretase, and amyloid β aggregation as potential treatment of Alzheimer's disease” (Eur J Med Chem, 2023).
The source made the active and inactive calls. No cut-off for these calls is given here.

What was measured:
GABA transporter 4 [1] = biological target: T1, GABA transporter 4 (Mus musculus, UniProt P31650)
T1 sequence (P31650 whole entry): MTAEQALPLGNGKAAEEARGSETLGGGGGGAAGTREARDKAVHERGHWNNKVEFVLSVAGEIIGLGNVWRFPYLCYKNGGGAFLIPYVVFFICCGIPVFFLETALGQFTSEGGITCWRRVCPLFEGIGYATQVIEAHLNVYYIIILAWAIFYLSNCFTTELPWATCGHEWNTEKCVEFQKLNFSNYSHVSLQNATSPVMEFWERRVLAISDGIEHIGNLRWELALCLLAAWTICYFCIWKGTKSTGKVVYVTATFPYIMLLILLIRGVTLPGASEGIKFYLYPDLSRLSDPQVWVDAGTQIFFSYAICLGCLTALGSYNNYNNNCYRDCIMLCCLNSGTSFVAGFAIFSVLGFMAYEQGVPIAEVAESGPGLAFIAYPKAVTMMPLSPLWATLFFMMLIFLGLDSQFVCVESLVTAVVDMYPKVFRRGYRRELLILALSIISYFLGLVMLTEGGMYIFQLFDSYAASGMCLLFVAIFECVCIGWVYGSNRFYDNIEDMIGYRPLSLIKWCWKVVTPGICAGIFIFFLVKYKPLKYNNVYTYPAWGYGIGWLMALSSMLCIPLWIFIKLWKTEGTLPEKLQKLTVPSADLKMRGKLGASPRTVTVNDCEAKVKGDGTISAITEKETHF

GABA transporter 2 [2] = biological target: T2, GABA transporter 2 (Mus musculus, UniProt P31651)
T2 sequence (P31651 whole entry): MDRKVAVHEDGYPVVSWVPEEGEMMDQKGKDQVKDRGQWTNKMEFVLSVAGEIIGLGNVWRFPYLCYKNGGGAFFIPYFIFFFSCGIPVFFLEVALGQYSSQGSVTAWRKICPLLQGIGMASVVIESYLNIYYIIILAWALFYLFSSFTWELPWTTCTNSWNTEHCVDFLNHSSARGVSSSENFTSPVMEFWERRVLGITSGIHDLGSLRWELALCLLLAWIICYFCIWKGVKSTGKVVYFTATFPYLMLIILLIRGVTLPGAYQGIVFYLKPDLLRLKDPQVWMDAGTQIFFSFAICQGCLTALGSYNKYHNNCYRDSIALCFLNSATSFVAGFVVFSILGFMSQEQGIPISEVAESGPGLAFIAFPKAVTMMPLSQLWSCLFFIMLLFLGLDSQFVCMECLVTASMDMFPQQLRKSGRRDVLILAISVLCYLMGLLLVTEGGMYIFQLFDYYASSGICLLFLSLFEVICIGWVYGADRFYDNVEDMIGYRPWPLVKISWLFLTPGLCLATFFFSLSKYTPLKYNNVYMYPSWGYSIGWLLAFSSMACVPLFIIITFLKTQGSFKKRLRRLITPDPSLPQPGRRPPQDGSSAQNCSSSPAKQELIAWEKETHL

[3] = biological target: T3, Sodium- and chloride-dependent GABA transporter 1 (Mus musculus, UniProt P31648)
[4] = biological target: Amyloid-beta precursor protein (Homo sapiens) (UniProt P05067); assay: Inhibition of amyloid beta42 (unknown origin) aggregation expressed in Escherichia coli BL21 (DE3) at 10 uM measured every 5 mins by ThT fluorescence based assay relative to control
[5] = biological target: Amyloid-beta precursor protein (Homo sapiens) (UniProt P05067); assay: Inhibition of soluble amyloid beta40 (unknown origin) aggregation at 10 uM measured after 24 hrs by ThT fluorescence based assay relative to control
[6] = biological target: Amyloid-beta precursor protein (Homo sapiens) (UniProt P05067); assay: Inhibition of soluble amyloid beta40 (unknown origin) aggregation assessed as nucleation constant at 10 uM measured after 24 hrs by ThT fluorescence based assay (reference value: […] 10^-4/min)
[7] = biological target: Amyloid-beta precursor protein (Homo sapiens) (UniProt P05067); assay: Inhibition of soluble amyloid beta40 (unknown origin) aggregation assessed as inhibition of fibril elongation by measuring fold reduction in elongation ratio at 10 uM measured after 24 hrs by ThT fluorescence based assay
[8] = biological target: Amyloid-beta precursor protein (Homo sapiens) (UniProt P05067); assay: Inhibition of soluble amyloid beta40 (unknown origin) aggregation assessed as time of half-aggregation at 10 uM measured after 24 hrs by ThT fluorescence based assay (reference value: […] min)
[9] = biological target: Acetylcholinesterase (Electrophorus electricus) (UniProt O42275); assay: Inhibition of electric eel AChE using acetylthiocholine iodide as substrate at 10 uM preincubated for 5 mins followed by substrate addition and measured after 5 mins by DTNB reagent based Ellman's method relative to control; conditions: time 10.0 min
[10] = biological target: Sodium- and chloride-dependent GABA transporter 1 (Mus musculus) (UniProt P31648); assay: Inhibition of NO 711 marker binding to mouse GAT1 assessed as residual activity at 100 uM by LC-ESI-MS/MS based competitive MS binding assay relative to control
Cholinesterase = Cholinesterase (Equus caballus, UniProt P81908)
Description: Inhibition of equine serum BuChE using butyrylthiocholine iodide as substrate preincubated for 5 mins followed by substrate addition and measured after 5 mins by DTNB reagent based Ellman's method

Mus musculus [11] = assay: Cognitive enhancing activity in Albino Swiss (CD-1) mouse model of scopolamine induced cognitive dysfunction and amnesia assessed as prolongation of step-through latency in retention trail at 30 mg/kg, ip pretreated for 30 mins followed by scopolamine administration and measured after 30 mins by passive avoidance test; format: functional, organism-based; conditions: time 60.0 min
HEK293 = assay: Cytotoxicity against HEK293 cells assessed as reduction in cell viability at 0.1 to 1 uM incubated for 72 hrs by MTS assay; format: toxicity, cell-based; conditions: human, hek293, 72 h, dose 0.1-1 µM
[12] = biological target: Amyloid-beta precursor protein (Homo sapiens) (UniProt P05067); assay: Inhibition of soluble amyloid beta40 (unknown origin) aggregation assessed as elongation constant at 10 uM measured after 24 hrs by ThT fluorescence based assay (reference value: […] /M/min)
[13] = biological target: Cholinesterase (Equus caballus) (UniProt P81908); assay: Mixed type inhibition of equine serum BuChE using varying concentrations of butyrylthiocholine iodide as substrate preincubated for 5 mins followed by substrate addition and measured after 5 mins by Ellman's method based Cornish-Bowden plot analysis; conditions: time 10.0 min
GABA transporter 4 [14] = biological target: T1, GABA transporter 4; assay: Inhibition of mouse GAT4 transfected in HEK293 cells assessed as reduction in [3H]-GABA uptake preincubated for 25 mins followed by [3H]-GABA addition and measured after 4 mins by liquid scintillation counting analysis; format: cell-based; conditions: read-out: pIC50 (converted)
[15] = biological target: T3, Sodium- and chloride-dependent GABA transporter 1; assay: Inhibition of mouse GAT1 transfected in HEK293 cells assessed as reduction in [3H]-GABA uptake preincubated for 25 mins followed by [3H]-GABA addition and measured after 4 mins by liquid scintillation counting analysis; format: cell-based; conditions: read-out: pIC50 (converted)
HepG2 = assay: Cytotoxicity against human HepG2 cells assessed as reduction in cell viability at 0.1 to 1 uM incubated for 72 hrs by MTS assay; format: toxicity, cell-based; conditions: hepg2, 72 h, dose 0.1-1 µM
Mus musculus [16] = assay: Cognitive enhancing activity in Albino Swiss (CD-1) mouse model of scopolamine induced cognitive dysfunction and amnesia assessed as prolongation of step-through latency in retention trail at 10 mg/kg, ip pretreated for 30 mins followed by scopolamine administration and measured after 30 mins by passive avoidance test; format: functional, organism-based; conditions: time 60.0 min
[17] = biological target: Amyloid-beta precursor protein (Homo sapiens) (UniProt P05067); assay: Inhibition of soluble amyloid beta40 (unknown origin) aggregation assessed as end time of amyloid polymerization at 10 uM measured after 24 hrs by ThT fluorescence based assay (reference value: […] min)
[18] = biological target: Cholinesterase (Equus caballus) (UniProt P81908); assay: Mixed type inhibition of equine serum BuChE using varying concentrations of butyrylthiocholine iodide as substrate preincubated for 5 mins followed by substrate addition and measured after 5 mins by Ellman's method based Lineweaver-Burk plot analysis; conditions: time 10.0 min
[19] = Inhibition of mouse GAT3 transfected in HEK293 cells assessed as reduction in [3H]-GABA uptake preincubated for 25 mins followed by [3H]-GABA addition and measured after 4 mins by liquid scintillation counting analysis; format: cell-based; conditions: HEK293; read-out: pIC50 (converted)
Mus musculus [20] = assay: Cognitive enhancing activity in Albino Swiss (CD-1) mouse model of scopolamine induced memory deficits and amnesia assessed as increase in discrimination index at 30 mg/kg, ip pretreated for 30 mins followed by scopolamine administration and measured after 30 mins by Novel object recognition test; format: functional, organism-based; conditions: time 60.0 min
GABA transporter 2 [21] = biological target: T2, GABA transporter 2; assay: Inhibition of mouse GAT2 transfected in HEK293 cells assessed as reduction in [3H]-GABA uptake preincubated for 25 mins followed by [3H]-GABA addition and measured after 10 mins by liquid scintillation counting analysis; format: cell-based; conditions: read-out: pIC50 (converted)
Beta-secretase 1 [22] = biological target: T4, Beta-secretase 1 (Homo sapiens, UniProt P56817)
Mus musculus [23] = assay: Cognitive enhancing activity in Albino Swiss (CD-1) mouse model of scopolamine induced cognitive dysfunction and amnesia assessed as prolongation of step-through latency in acquisition phase at 10 mg/kg, ip pretreated for 30 mins followed by scopolamine administration and measured after 30 mins by passive avoidance test; format: functional, organism-based; conditions: time 60.0 min
[24] = biological target: Amyloid-beta precursor protein (Homo sapiens) (UniProt P05067); assay: Inhibition of amyloid beta40 (unknown origin) aggregation at 10 uM measured every 5 mins by ThT fluorescence based assay relative to control
[25] = biological target: Amyloid-beta precursor protein (Homo sapiens) (UniProt P05067); assay: Inhibition of soluble amyloid beta40 (unknown origin) aggregation assessed as lag time of amyloid polymerization at 10 uM measured after 24 hrs by ThT fluorescence based assay (reference value: […] min)
[26] = biological target: T5, GABA transporter 4 (Mus musculus) (UniProt P31650); assay: Inhibition of mouse GAT4 transfected in HEK293 cells assessed as reduction in [3H]-GABA uptake by measuring residual activity at 100 uM preincubated for 25 mins followed by [3H]-GABA addition and measured after 4 mins by liquid scintillation counting analysis relative to control; format: cell-based; conditions: time 29.0 min
T5 sequence (whole entry): T1 sequence (P31650 whole entry)

[27] = biological target: Cholinesterase (Equus caballus) (UniProt P81908); assay: Inhibition of equine serum BuChE using butyrylthiocholine iodide as substrate at 10 uM preincubated for 5 mins followed by substrate addition and measured after 5 mins by DTNB reagent based Ellman's method relative to control; conditions: time 10.0 min
[28] = biological target: Sodium- and chloride-dependent GABA transporter 1 (Mus musculus) (UniProt P31648); assay: Inhibition of mouse GAT1 transfected in HEK293 cells assessed as reduction in [3H]-GABA uptake by measuring residual activity at 100 uM preincubated for 25 mins followed by [3H]-GABA addition and measured after 4 mins by liquid scintillation counting analysis relative to control; format: cell-based; conditions: time 29.0 min
[29] = biological target: T6, GABA transporter 2 (Mus musculus) (UniProt P31651); assay: Inhibition of mouse GAT2 transfected in HEK293 cells assessed as reduction in [3H]-GABA uptake by measuring residual activity at 100 uM preincubated for 25 mins followed by [3H]-GABA addition and measured after 10 mins by liquid scintillation counting analysis relative to control; format: cell-based; conditions: time 35.0 min
T6 sequence (whole entry): T2 sequence (P31651 whole entry)

Beta-secretase 1 [30] = biological target: T4, Beta-secretase 1; conditions: dose 50.0 µM, time 60.0 min

Amyloid-beta precursor protein (Homo sapiens), sequence (P05067 whole entry): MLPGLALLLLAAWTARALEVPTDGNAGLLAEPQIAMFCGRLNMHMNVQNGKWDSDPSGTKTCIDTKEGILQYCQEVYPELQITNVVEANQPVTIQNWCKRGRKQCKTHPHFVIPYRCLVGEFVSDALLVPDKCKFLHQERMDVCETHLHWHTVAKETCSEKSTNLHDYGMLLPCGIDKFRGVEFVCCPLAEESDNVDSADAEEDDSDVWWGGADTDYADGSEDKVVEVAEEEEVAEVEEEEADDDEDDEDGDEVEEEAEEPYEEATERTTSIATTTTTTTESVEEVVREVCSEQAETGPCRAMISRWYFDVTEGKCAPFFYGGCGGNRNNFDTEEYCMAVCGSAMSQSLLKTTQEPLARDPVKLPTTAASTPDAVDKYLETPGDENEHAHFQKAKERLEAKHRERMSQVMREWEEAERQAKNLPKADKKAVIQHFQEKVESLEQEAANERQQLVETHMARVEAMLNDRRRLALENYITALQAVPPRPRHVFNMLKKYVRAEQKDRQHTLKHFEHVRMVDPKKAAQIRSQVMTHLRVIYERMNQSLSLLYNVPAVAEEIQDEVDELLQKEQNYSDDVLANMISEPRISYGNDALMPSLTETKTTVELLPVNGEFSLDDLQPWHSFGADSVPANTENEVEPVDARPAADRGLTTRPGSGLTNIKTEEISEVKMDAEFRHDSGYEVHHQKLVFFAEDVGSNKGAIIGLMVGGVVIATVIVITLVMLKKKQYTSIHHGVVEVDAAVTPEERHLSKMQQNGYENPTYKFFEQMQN
Cholinesterase (Equus caballus), sequence (P81908 whole entry): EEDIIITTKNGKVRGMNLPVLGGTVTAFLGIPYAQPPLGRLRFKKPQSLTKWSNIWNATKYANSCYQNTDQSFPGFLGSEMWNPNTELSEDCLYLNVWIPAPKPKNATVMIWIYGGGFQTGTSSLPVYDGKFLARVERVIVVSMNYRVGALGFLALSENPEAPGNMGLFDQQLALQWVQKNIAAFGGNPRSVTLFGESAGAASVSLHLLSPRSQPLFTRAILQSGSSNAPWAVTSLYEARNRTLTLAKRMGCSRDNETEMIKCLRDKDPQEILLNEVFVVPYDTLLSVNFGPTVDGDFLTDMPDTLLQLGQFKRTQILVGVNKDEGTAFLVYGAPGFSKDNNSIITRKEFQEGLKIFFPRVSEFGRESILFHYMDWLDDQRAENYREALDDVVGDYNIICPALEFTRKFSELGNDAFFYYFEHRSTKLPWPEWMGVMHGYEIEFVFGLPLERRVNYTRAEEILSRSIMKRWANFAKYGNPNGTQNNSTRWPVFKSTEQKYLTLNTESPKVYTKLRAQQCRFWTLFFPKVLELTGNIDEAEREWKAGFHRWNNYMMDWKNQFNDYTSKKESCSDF
T4 sequence (P56817 whole entry): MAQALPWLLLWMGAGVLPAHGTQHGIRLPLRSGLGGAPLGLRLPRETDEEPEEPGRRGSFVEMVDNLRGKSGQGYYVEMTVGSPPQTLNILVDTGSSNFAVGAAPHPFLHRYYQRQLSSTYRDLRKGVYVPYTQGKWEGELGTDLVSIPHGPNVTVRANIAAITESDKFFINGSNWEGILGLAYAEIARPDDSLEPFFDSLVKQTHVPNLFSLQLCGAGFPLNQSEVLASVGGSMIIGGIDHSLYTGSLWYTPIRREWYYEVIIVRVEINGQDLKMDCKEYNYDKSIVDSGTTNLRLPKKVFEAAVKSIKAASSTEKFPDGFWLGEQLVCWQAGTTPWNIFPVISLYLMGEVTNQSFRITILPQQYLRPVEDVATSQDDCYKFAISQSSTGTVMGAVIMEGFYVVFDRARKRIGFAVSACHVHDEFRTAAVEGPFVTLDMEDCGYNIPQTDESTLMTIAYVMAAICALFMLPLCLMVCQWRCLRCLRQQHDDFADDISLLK
Acetylcholinesterase (Electrophorus electricus), sequence (O42275 24-633 limits assumed): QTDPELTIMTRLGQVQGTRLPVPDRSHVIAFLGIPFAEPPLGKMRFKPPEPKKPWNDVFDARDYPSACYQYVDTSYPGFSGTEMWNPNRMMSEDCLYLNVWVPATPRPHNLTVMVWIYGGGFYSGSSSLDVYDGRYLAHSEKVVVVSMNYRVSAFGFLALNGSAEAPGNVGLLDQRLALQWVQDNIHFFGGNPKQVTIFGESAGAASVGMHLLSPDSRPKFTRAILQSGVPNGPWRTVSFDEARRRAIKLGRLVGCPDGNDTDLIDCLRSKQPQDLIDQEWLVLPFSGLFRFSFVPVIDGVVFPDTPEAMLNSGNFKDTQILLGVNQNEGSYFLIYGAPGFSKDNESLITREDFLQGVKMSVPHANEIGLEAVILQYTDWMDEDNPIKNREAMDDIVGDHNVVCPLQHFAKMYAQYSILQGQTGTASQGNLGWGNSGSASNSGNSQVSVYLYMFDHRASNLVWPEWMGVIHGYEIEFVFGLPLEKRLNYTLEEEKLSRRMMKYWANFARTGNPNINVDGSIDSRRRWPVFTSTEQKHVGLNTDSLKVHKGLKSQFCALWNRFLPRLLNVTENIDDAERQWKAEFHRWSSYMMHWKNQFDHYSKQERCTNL
Cholinesterase, sequence (P81908 whole entry): as the sequence (P81908 whole entry) above

CN(CCC=C(c1ccccc1)c1ccccc1)C(CN)C(=O)NCc1ccccc1Cl (stereo not drawn)
IC50 (GABA transporter 4 [1]): 9 µM
IC50 (GABA transporter 2 [2]): 6 µM
IC50 [3]: 13 µM

CN(CCOCCn1c2ccccc2c2ccccc21)C(CCN)C(=O)NCc1ccccc1 (stereo not drawn)
inhibition [4]: 31.7%
inhibition [5]: 78.6%
K [6]: 1.34 10^-4/min
fold change (FC) [7]: 2
T1/2 [8]: 1.44 h
inhibition [9]: < 10%
Activity [10]: 71%
IC50 (Cholinesterase): 0.173 µM
Activity (Mus musculus [11]): Active
Activity (HEK293): Non-Toxic
K [12]: 117 M⁻¹ s⁻¹
inhibition [13]: Active
IC50 (GABA transporter 4 [14]): 25.1 µM
IC50 [15]: 30.9 µM
Activity (HepG2): Non-Toxic
Activity (Mus musculus [16]): inactive
TIME [17]: 2.09 h
inhibition [18]: Active
IC50 [19]: 15.1 µM
Activity (Mus musculus [20]): inactive
IC50 (GABA transporter 2 [21]): 15.8 µM
IC50 (Beta-secretase 1 [22]): 9.42 µM
Activity (Mus musculus [23]): Active
inhibition [24]: 78.9%
TIME [25]: 0.792 h

O=C(NC1CCN(C(c2ccccc2)c2ccccc2)CC1)C1CC2c3ccccc3NC2CN1 (stereo not drawn)
Activity [26]: 89%
inhibition [9]: < 10%
inhibition [27]: < 10%
Activity [10]: 73%
Activity [28]: 87%
Activity [29]: 57%

Cc1ccsc1C(=CCCN(C)[C@H]1CCCC[C@H]1C(=O)O)c1sccc1C
IC50 (GABA transporter 2 [2]): 21 µM

CN(CCC=C(c1ccccc1)c1ccccc1)C(CO)C(=O)NCc1ccccc1Cl (stereo not drawn)
IC50 (GABA transporter 4 [1]): 10 µM
IC50 (GABA transporter 2 [2]): 13 µM
IC50 [3]: 19 µM

CN(CCOCCN1c2ccccc2Sc2ccccc21)C(CCO)C(=O)NCc1ccc(Cl)cc1 (stereo not drawn)
inhibition [9]: < 10%
Activity [10]: 96%
IC50 (Cholinesterase): 4.27 µM
Activity [28]: 57%
IC50 (GABA transporter 4 [14]): 20.9 µM
IC50 [19]: 7.94 µM
inhibition (Beta-secretase 1 [30]): 44%
Activity [29]: 55%

CN(CC/C=C/c1ccccc1-c1ccc(Cl)cc1Cl)C(CCO)C(=O)NCc1ccccc1 (stereo not drawn)
inhibition [27]: 47%
Activity [10]: 49%
Activity [28]: 45%
IC50 (GABA transporter 4 [14]): 7.41 µM
IC50 [19]: 7.76 µM
inhibition (Beta-secretase 1 [30]): 52%
Activity [29]: 13%
